# Laboratory results taken from publication PMC7904559, “QSAR and molecular docking for the search of AOX inhibitors: a rational drug discovery approach” (Journal of Computer-Aided Molecular Design, 2020).
# Where two headings read alike, the source gives them in different places.
# Legend:
# [1] = system: cytochrome bc1 complex; details: cited from earlier work
# [2] = target: trypanosome alternative oxidase (TAO) (Trypanosoma brucei brucei, UniProt Q26710); experiment: biochemical
# [3] = system: T. vivax; details: T. vivax-infected mouse; single intramuscular dose of 50 mg/kg or 6 mg/kg on 4 consecutive days; cited from earlier work
# [4] = set-up: method as in PMID 30693533; details: cited from earlier work
# [5] = target: alternative oxidase of Trypanosoma brucei (TAO); details: cited from earlier work; for pIC50 Exp.: training set, calculated as -log IC50
# [6] = IC50, recombinant AOX expressed in E. coli membranes, mean ± SD of n = 3 isolations, 37 °C, pH 7.4, 1.25 mM NADH, 1 mM KCN
# [7] = pIC50 Exp, external validation set, -log IC50 of values measured by respirometry
# [8] = wild type TAO, Table 2, read-out: IC50
# [9] = read-out: IC50 (50% inhibitory concentration), against TAO
# trypanosome alternative oxidase (TAO), sequence (Q26710 whole entry): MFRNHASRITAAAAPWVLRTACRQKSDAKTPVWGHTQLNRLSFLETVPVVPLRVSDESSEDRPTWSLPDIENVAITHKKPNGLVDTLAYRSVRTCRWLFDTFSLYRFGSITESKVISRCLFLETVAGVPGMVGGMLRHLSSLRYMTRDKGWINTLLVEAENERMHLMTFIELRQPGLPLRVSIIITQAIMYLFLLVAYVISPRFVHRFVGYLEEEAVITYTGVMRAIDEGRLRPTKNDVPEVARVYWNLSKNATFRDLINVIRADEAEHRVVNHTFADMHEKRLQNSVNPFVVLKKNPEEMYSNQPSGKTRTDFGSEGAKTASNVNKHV
Structure (SMILES),"IC50 [5, 9] [nM]",pIC50 Exp. [5],also measured
CC(/C=C/[C@@]1(C)[C@H](C)CCC(=O)[C@@H]1C)=C\Cc1c(O)c(Cl)c(C)c(C=O)c1O [Ascochlorin],–,–,"inhibition of cytochrome bc1 complex [1]: potent inhibitor; IC50 [2, 6]: ~7 nM; IC50 [2, 7]: 7.4 nM"
C/C(=C\Cc1c(O)c(Cl)c(C)c(C=O)c1O)CC/C=C(\C)[C@@H]1CC(=O)C(C)(C)O1 [Ascofuranone],–,–,"inhibition of mammalian cytochrome bc1 complex ([1]; mammalian, concluded from survival of mice following AF treatment): not an effective inhibitor; treatment outcome [3]: successful treatment; blood clearance [4]: rapid; oral bioavailability [4]: low"
CC(C)=CCC/C(C)=C/Cc1c(O)c(Cl)c(C)c(C=O)c1O [Colletochlorin B],–,–,"IC50 [5, 8]: 0.2 nM"
CC(C)=CCc1c(O)c(Cl)c(C)c(C=O)c1O [Colletochlorin D],–,–,"IC50 [2, 7]: 33 nM"
C/C(=C\Cc1c(O)c(Cl)c(C)c(C=O)c1O)CC/C=C(\C)COC(=O)C(C)(C)C [Compound 1],0.4,9.398,–
C/C(=C\CC/C(C)=C/Cc1c(O)c(Cl)c(C)c(C=O)c1O)CO [Compound 2],1.2,8.921,–
CC(=O)OC(C)/C(C)=C/CC/C(C)=C/Cc1c(O)c(Cl)c(C)c(C=O)c1O (stereo not shown) [Compound 3],1.4,8.854,–
C/C=C/c1c(O)c(Cl)c(C)c(C=O)c1O [Compound 7a],–,7.000,–
CCC/C=C/c1c(O)c(Cl)c(C)c(C=O)c1O [Compound 7b],3.8,8.420,–
Cc1c(Cl)c(O)c(CCCCCCCCO)c(O)c1C=O [Compound 11],6,8.222,–
Cc1c(Cl)c(O)c(CCCCCCCC(=O)O)c(O)c1C=O [Compound 12],40,7.398,–
CC(=O)c1c(C)c(Cl)c(O)c(C/C=C(\C)CC/C=C(\C)C2CC(=O)C(C)(C)O2)c1O (stereo not shown) [Compound 14],2.5,8.602,–
CC(=O)c1c(C)c(Cl)c(O)c(C/C=C(\C)CC/C=C(\C)COC(=O)C(C)(C)C)c1O [Compound 15],0.7,9.155,–
CC(=O)c1c(C)c(Cl)c(O)c(C/C=C(\C)CCC=C(C)C)c1O [Compound 16],–,9.824,"IC50 [5, 8]: 0.15 nM"
C/C(=C\Cc1c(O)c(Cl)c(C)c(/C=N\O)c1O)CC/C=C(\C)C1CC(=O)C(C)(C)O1 (stereo not shown) [Compound 17],28,7.553,–
COC(=O)c1c(C)c(Cl)c(O)c(C/C=C(\C)CCC=C(C)C)c1O [Compound 18],45,7.347,–
CCCCCCCCc1c(O)c(Cl)c(C)c([N+](=O)[O-])c1O [Compound 20],0.45,9.347,–
C/C(=C\Cc1c(O)c(Cl)cc(C=O)c1O)CC/C=C(\C)C1CC(=O)C(C)(C)O1 (stereo not shown) [Compound 25],0.45,9.347,–
CC(C)=CCC/C(C)=C/Cc1c(O)c(Cl)cc(C=O)c1O [Compound 26],0.23,9.638,–
CC(C)=CCC/C(C)=C/Cc1c(O)cc(C)c(C=O)c1O [Compound 27],0.5,9.301,–
CC(C)=CCC/C(C)=C/Cc1c(O)ccc(C=O)c1O [Compound 28],38,7.420,–
COc1c(Cl)c(C)c(C=O)c(O)c1C/C=C(\C)CC/C=C(\C)C1CC(=O)C(C)(C)O1 (stereo not shown) [Compound 29],4,8.398,–
CC(C)=CCC/C(C)=C/CC/C(C)=C/Cc1c(O)c2ccccc2oc1=O [Ferulenol],–,–,"IC50 [2, 7]: 53.1 nM"
CCCCCCCCOC(=O)c1cc(O)c(O)c(O)c1 [Octyl gallate],–,–,"IC50 [2, 7]: 230 nM"
CCCOC(=O)c1cc(O)c(O)c(O)c1 [Propyl gallate],–,–,"IC50 [5, 8]: 200 nM; IC50 [2, 6]: 1400 nM; IC50 ([2]; external validation set, -log IC50 of values measured by respirometry, read-out: pIC50 Exp (converted)): 1400 nM"
